Consider 16 compounds from ChEMBL document CHEMBL3763153, “Recent Update on Human Lactate Dehydrogenase Enzyme 5 (hLDH5) Inhibitors: A Promising Approach for Cancer Chemotherapy” (J Med Chem, 2016).

As a reminder, the Ki is the dissociation constant of the complex between target and ligand, obtained from inhibition or displacement. As usually defined, the IC50 is the concentration needed to halve the response being measured.

For assay [1], the target named is T1, L-lactate dehydrogenase A chain (Homo sapiens, UniProt P00338).
Description: Competitive inhibition of human LDH5 in presence of NADH
Assay [2] has as its target L-lactate dehydrogenase B chain (Homo sapiens, UniProt P07195).
Description: Competitive inhibition of human LDH1 in presence of NADH
Assay [3] addresses T1, L-lactate dehydrogenase A chain. Put plainly: Competitive inhibition of human LDH5 incubated for 15 mins in presence of NADH by fluorescence analysis.

Sequence of L-lactate dehydrogenase B chain (P07195 whole entry): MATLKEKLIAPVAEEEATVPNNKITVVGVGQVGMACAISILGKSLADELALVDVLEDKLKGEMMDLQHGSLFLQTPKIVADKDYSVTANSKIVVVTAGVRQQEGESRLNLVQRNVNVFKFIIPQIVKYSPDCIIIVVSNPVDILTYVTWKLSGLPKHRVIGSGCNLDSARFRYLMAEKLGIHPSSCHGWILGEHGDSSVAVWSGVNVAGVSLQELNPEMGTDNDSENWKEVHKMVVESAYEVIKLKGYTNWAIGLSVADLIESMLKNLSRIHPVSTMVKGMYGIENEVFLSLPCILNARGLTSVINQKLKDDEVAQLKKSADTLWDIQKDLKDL

Turning to `Cc1cc2c(C(C)C)c(O)c(O)c3c2c(c1-c1c(C)cc2c(C(C)C)c(O)c(O)c4c2c1OC4=O)OC3=O`, the Ki stood at 600 nM in assay [1] and 400 nM in assay [2].

For the compound `CCCc1c(O)c(O)c(C(=O)O)c2ccc(C)cc12`, affinity in assay [1] was put at a Ki of 1000 nM.

In turn, `O=C(O)CCCc1ccc(-n2cc(CCCn3cc(C4=C(c5c[nH]c6ccccc56)C(=O)NC4=O)c4ccccc43)nn2)cc1` had an IC50 in assay [1] of 14800 nM.

The compound `Cc1cc2c(C(C)C)c(O)c(O)c(C(=O)O)c2cc1Cc1ccccc1` displayed a Ki in assay [1] of 200 nM.

Turning to `O=C(O)CCCCn1cc(CCCCn2cc(C3=C(c4c[nH]c5ccccc45)C(=O)NC3=O)c3ccccc32)nn1`, the IC50 in assay [1] was 35900 nM.

Turning to `Cc1ccc(-c2cc3c(C(=O)O)c(O)c(O)c(C(C)C)c3cc2C)cc1`, the Ki stood at 30 nM in assay [1] and 8000 nM in assay [2].

As to `Cc1ccccc1-c1cc2c(C(=O)O)c(O)c(O)c(C(C)C)c2cc1C`, the results for the Ki in assay [1] and in assay [2] were 3000 nM and greater than 125000 nM, respectively.

Turning to `O=C(O)c1cc2c(C(F)(F)F)cc(-c3ccccc3)cc2n1O[C@@H]1O[C@H](CO)[C@@H](O)[C@H](O)[C@H]1O`, the Ki in assay [3] was 19500 nM.

Consider `Cc1cc2c(C(C)C)c(O)c(O)c(C(=O)O)c2cc1Cc1ccc(Cl)cc1`, for which the results for the inhibition constant Ki in assay [1] and in assay [2] were 1000 nM and 8000 nM, respectively.

Regarding `Cc1cc2c(C(C)C)c(O)c(O)c(C(=O)O)c2cc1-c1ccc2c(C(C)C)c(O)c(O)c(C(=O)O)c2c1`, the Ki in assay [1] worked out at 1300 nM; in assay [2], 700 nM.

The compound `Cc1cccc(-c2cc3c(C(=O)O)c(O)c(O)c(C(C)C)c3cc2C)c1` had a Ki in assay [1] of 200 nM.

For the compound `Cc1cc2c(C(C)C)c(O)c(O)c3c2c(c1-c1c(C)cc2c(C(C)C)c(O)c(O)c4c2c1OC4=N)OC3=N`, the Ki was 2500 nM in assay [1] and 92000 nM in assay [2].

The compound `CC(=O)Oc1c(-c2c(C)cc3c(C(C)C)c(O)c(O)c(C#N)c3c2OC(C)=O)c(C)cc2c(C(C)C)c(O)c(O)c(C#N)c12` yielded a Ki in assay [1] of 2000 nM.

`CCCCC(=O)Oc1c(-c2c(C)cc3c(C(C)C)c(O)c(O)c(C#N)c3c2OC(=O)CCCC)c(C)cc2c(C(C)C)c(O)c(O)c(C#N)c12` came in with a Ki in assay [1] of 9100 nM.

In turn, `Cc1cc2c(C(C)C)c(O)c(O)c(C=O)c2c(O)c1-c1c(C)cc2c(C(C)C)c(O)c(O)c(C=O)c2c1O` [GOSSYPOL] had a Ki in assay [1] of 1900 nM.

Take `NC(=O)C(=O)O` [OXAMATE]: affinity in assay [2] was put at a Ki of 94400 nM.
